In patent publication US12059405B1, “3-(2,4,5-tris(4-chlorophenyl)-1H-imidazol-1-yl) propanoic acid as an antimicrobial compound” (KING FAISAL UNIVERSITY, priority 2023, dated 2024):

Columns and labels:
Type in all cases: cell-based
Bacillus cereus = assay: Agar plate disc-diffusion, antibacterial, Bacillus cereus; conditions: nutrient agar, 37° C., 48 hours, DMSO control zone subtracted
Protocol: (§1) The agar plate disc-diffusion method was applied. […] The discs were then placed onto the surface of agar plates (nutrient agar for bacteria and Sabouraud's dextrose agar for fungi) seeded with the test organism. Each plate contained 15 mL of the agar medium, previously seeded with 0.2 mL of the broth culture of each organism pregrown for 18 hours. The plates were incubated at 37° C. for 48 hours, and 72 hours for fungi. The inhibition zones was measured in mm. Discs impregnated with DMSO were used as a control, and its inhibition zone was subtracted from the tested compound actual inhibition zone.

Staphylococcus aureus = assay: Agar plate disc-diffusion, antibacterial, Staphylococcus aureus; conditions: nutrient agar, 37° C., 48 hours, DMSO control zone subtracted
Protocol: as §1

Pseudomonas aeruginosa = assay: Agar plate disc-diffusion, antibacterial, Pseudomonas aeruginosa; conditions: nutrient agar, 37° C., 48 hours, DMSO control zone subtracted
Protocol: as §1

Escherichia coli = assay: Agar plate disc-diffusion, antibacterial, Escherichia coli; conditions: nutrient agar, 37° C., 48 hours, DMSO control zone subtracted
Protocol: as §1

Aspergillus flavus = assay: Agar plate disc-diffusion, antifungal, Aspergillus flavus; conditions: Sabouraud's dextrose agar, 37° C., 72 hours, DMSO control zone subtracted
Protocol: as §1

[1] = test system: Chrysosporium keratinophilum; assay: Agar plate disc-diffusion, antifungal, Chrysosporium keratinophilum; conditions: Sabouraud's dextrose agar, 37° C., 72 hours, DMSO control zone subtracted
Protocol: as §1

[2] = A = concentration of comp. = 10,000 μL
[3] = B = concentration of comp. = 30,000 μL
[4] = C = concentration of comp. = 50,000 μL

In the case of `O=C(O)CCn1c(-c2ccc(Cl)cc2)nc(-c2ccc(Cl)cc2)c1-c1ccc(Cl)cc1` [V, 3-(2,4,5-tris(4-chlorophenyl)-1H-imidazol-1-yl)propanoic acid], the “inhibition zone, Bacillus Cereus, A” value (Bacillus cereus; [2]) was 21 mm, the “inhibition zone, Bacillus Cereus, B” value (Bacillus cereus; [3]) was 29 mm and the “inhibition zone, Bacillus Cereus, C” value (Bacillus cereus; [4]) was 38 mm. The “inhibition zone, Staphylococcus aureus, A” value (Staphylococcus aureus; [2]) was 19 mm, the “inhibition zone, Staphylococcus aureus, B” value (Staphylococcus aureus; [3]) was 23 mm and the “inhibition zone, Staphylococcus aureus, C” value (Staphylococcus aureus; [4]) was 36 mm. The “inhibition zone, Pseudomonas aeruginosa, A” value (Pseudomonas aeruginosa; [2]) was 25 mm, the “inhibition zone, Pseudomonas aeruginosa, B” value (Pseudomonas aeruginosa; [3]) was 26 mm and the “inhibition zone, Pseudomonas aeruginosa, C” value (Pseudomonas aeruginosa; [4]) was 37 mm. The “inhibition zone, Escherichia coli, A” value (Escherichia coli; [2]) was 27 mm, the “inhibition zone, Escherichia coli, B” value (Escherichia coli; [3]) was 36 mm and the “inhibition zone, Escherichia coli, C” value (Escherichia coli; [4]) was 48 mm. The “inhibition zone, Aspergillus flavus, A” value (Aspergillus flavus; [2]) was 19 mm, the “inhibition zone, Aspergillus flavus, B” value (Aspergillus flavus; [3]) was 24 mm and the “inhibition zone, Aspergillus flavus, C” value (Aspergillus flavus; [4]) was 32 mm. The “inhibition zone, Chrysosporium keratinophilum, A” value [1, 2] was 25 mm, the “inhibition zone, Chrysosporium keratinophilum, B” value [1, 3] was 26 mm and the “inhibition zone, Chrysosporium keratinophilum, C” value [1, 4] was 45 mm.
